Test results published in patent US20230317203A1, “SCREENING METHOD” (University of Leeds, priority 2022, published 2023).

Legend:
[1] = biological target: T1, BRISC(FL) (Homo sapiens, UniProt P46736+Q15018+Q9NXR7); assay: Native mass spectrometry of BRISC with inhibitor; type: binding; settings: 10 μM BRISC(FL), 1 mM inhibitor
T1 construct: The four-subunit human BRISC (full-length (FL) and MERIT40ΔN, Abraxas2ΔC) complex was cloned; made in house; host or cells: Spodoptera frugiperda (Sf9) insect cells
Method: Samples were buffer exchanged into 500 mM ammonium acetate using Zeba Spin 7K MWCO desalting columns (ThermoFisher). Gold and palladium coated nanospray tips were prepared in-house and mounted on the nano-electrospray ionisation source. Mass spectra were acquired on a Q Exactive Ultra-High Mass Range Hybrid Quadrupole-Orbitrap mass spectrometer (Thermo Fisher), optimised for mass resolution at high m/z ratios. Data were visualised and processed using Mass Lynx (v4.1) and UniDec (v2.7.1).

[2] = biological target: BRISC Abraxas2 Thr140Ala (Homo sapiens, UniProt P46736+Q15018+Q9NXR7, T140A); assay: IQF DUB assay, BRISC mutant Abraxas2 Thr140Ala; type: biochemical; settings: FIG. 4B
Method: (§1) The four-subunit human BRISC (full-length (FL) and MERIT40ΔN, Abraxas2ΔC) complex was cloned using the MultiBac system and co-expressed in Spodoptera frugiperda (Sf9) insect cells^32. BRISC mutants were cloned into pFastBac vectors in the Bac-to-Bac system (ThermoFisher), baculoviruses generated in Sf9 cells and used for co-infection of Trichoplusia ni (Tni) cells. All BRISC complexes were purified as previously described^12,13.
(§2) BRISC complexes were tested for activity in DUB reaction buffer containing 50 mM HEPES-NaOH pH 7.0, 100 mM NaCl, 0.1 mg/mL BSA, 1 mM DTT, and 0.003% Brij-35. […] Inhibitors were assayed at concentrations up to 200 μM. […] DUB activity was measured using internally quenched fluorescent (IQF) K63-linked diUb (Lifesensors, catalogue number: DU6303) at 50 or 100 nM. Cleaved diUb was monitored by measuring fluorescence intensity (Ex. 540 nm, Em. 580 nm; dichroic mirror 560 nm). Fluorescence intensity was measured every minute for 30 minutes at 30° C. Fluorescence intensity units for the first 10 minutes were plotted against time to generate a linear reaction progress curve, where the initial velocity (v0) corresponds to the gradient of the curve. IC50 values were calculated using the GraphPad Prism (v8.0) built-in dose-response equation for inhibitor concentration vs. response (variable slope). […]

[3] = biological target: BRISC BRCC36 Leu169Ala (Homo sapiens, UniProt P46736+Q15018+Q9NXR7, L169A); assay: IQF DUB assay, BRISC mutant BRCC36 Leu169Ala; type: biochemical; settings: FIG. 4B
Method: as §1, §2

[4] = biological target: BRISC BRCC36 Ile158Lys (Homo sapiens, UniProt P46736+Q15018+Q9NXR7, I158K); assay: Mass photometry, BRISC mutant BRCC36 Ile158Lys; type: binding; settings: BRCC36 Ile158Lys (inactive mutant)
Method: Microscope coverslips were prepared as previously described^33. All mass photometry experiments were performed using a One^MP mass photometer (Refeyn Ltd, Oxford, UK). For preliminary BRISC-inhibitor measurements, 1 μM BRISC(FL) was mixed with either DMSO or inhibitor at 330 μM and incubated for 15 minutes on ice. Prior to MP measurement, the BRISC-inhibitor mix was diluted in gel filtration buffer (25 mM HEPES, 150 mM NaCl, 1 mM TCEP) for a final concentration of BRISC at 10 nM (0.05% DMSO). 12 μL of this dilution was used for the final MP measurement, following autofocus stabilisation. […] Movies were recorded for 60 seconds using AcquireMP (Refeyn, UK), and were processed using DiscoverMP (Refeyn, UK). […] The relative amount of each species is calculated as the area of each Gaussian, where a refers to the standard deviation of the fitted Gaussian. […] Curves were fitted and EC50 values were calculated using the GraphPad Prism (v8.0) built-in dose-response equation for concentration of agonist vs. response (variable slope).
The cryo-EM structures of BRISC bound to molecular glues allowed picking of selective mutations to probe the BRISC-compound interaction site and to assess the contribution of each interacting residue for inhibition and gluing activity. […] For the remaining active 13 mutants (FIGS. 11C, 11D) inhibitor IC50s were calculated against BRISC DUB activity. […]

[5] = system: BRISC BRCC45 mutants; assay: IQF DUB assay, BRISC BRCC45 mutants; type: biochemical, human; settings: four BRCC45 residues mutated, FIG. 4B
Method: as §1, §2

[6] = biological target: BRISC Abraxas2 Ile133Trp (Homo sapiens, UniProt P46736+Q15018+Q9NXR7, I133W); assay: IQF DUB assay, BRISC mutant Abraxas2 Ile133Trp; type: biochemical; settings: FIG. 4B
Method: as §1, §2

IC50 higher than BRISC WT [2]: 10 fold
inhibitor sensitivity of mutant [3]: severely affected
inhibitor sensitivity of mutant [6]: no effect on inhibitor sensitivity
SMILES: O=C(NC1C2CNCC21)c1nn(C(=O)c2c(Cl)cccc2Cl)cc1NC(=O)c1c(Cl)cccc1Cl (stereo not drawn) [FX-171-C]
BRISC species by native mass spectrometry [1]: BRISC dimers with a MW consistent with a 4:4:4:4 stoichiometry were observed
inhibitor-induced dimerisation [4]: reduction in the inhibitor-induced dimerisation effect
ability to recognise the inhibitor [5]: reduced
